# From US20070259965A1, “Acyclic 1,3-Diamine And Uses Therefor” (SmithKline Beecham Corporation, priority 2004, published 2007)
# Legend:
# TRPV4 channel receptors = target: T1, TRPV4 channel receptors (Bos taurus, UniProt A0A8F4X677); assay: Ca2+ influx by Fura-2 fluorescence on a FlexStation in bovine articular chondrocytes; assay type: cell-based; settings: Fura-2, FlexStation
# T1 construct: obtained using this method in bovine articular chondrocytes; endogenous in cells; host or cells: bovine articular chondrocytes (primary)
# T1 sequence (A0A8F4X677 1-871): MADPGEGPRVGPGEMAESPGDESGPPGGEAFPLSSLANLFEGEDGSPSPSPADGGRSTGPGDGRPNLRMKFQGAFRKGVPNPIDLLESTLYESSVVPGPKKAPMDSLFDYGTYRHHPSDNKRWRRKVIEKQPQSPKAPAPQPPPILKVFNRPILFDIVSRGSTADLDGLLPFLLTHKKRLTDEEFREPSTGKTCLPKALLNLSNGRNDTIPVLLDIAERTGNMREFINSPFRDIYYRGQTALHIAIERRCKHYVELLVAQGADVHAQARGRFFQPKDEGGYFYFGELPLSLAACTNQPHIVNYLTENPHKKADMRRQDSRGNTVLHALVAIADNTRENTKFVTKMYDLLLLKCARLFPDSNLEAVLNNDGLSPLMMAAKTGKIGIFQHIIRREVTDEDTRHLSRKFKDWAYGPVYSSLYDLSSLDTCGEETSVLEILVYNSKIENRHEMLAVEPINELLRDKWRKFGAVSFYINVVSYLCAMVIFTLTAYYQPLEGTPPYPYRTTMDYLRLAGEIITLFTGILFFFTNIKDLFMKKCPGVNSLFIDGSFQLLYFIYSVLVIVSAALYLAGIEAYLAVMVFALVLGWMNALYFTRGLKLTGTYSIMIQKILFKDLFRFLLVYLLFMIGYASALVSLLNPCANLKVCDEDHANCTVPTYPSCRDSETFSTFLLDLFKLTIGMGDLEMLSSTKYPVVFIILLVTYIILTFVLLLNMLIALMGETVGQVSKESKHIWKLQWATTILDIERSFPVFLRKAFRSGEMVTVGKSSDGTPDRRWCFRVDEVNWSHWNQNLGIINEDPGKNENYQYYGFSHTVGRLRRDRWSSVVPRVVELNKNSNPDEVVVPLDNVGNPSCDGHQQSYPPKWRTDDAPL
# Excerpt: Ca^2+influx mediated through TRPV4 channel receptors can be measured using articular chondrocytes from such species as, but not limited to, human, rat, canine, rabbit, monkey, and bovine, using standard techniques in the art such as, but not limited to, Fura-2 (Invitrogen/Molecular Probes, Eugene, Oreg.) fluorescence using a FlexStation (manufactured by Molecular Devices, Sunnyvale, Calif.). Table 1 lists biological data for several representative compounds obtained using this method in bovine articular chondrocytes.
# TRPV4 channel receptor = target: T2, TRPV4 channel receptor (Homo sapiens, UniProt Q9HBA0); assay: FLIPR assay using TRPV4 expressing HEK cells; assay type: cell-based; settings: FLIPR method; pEC50 = −log10(EC50 μM)
# T2 construct: expressed in transfected cells; host or cells: HEK cells
# T2 sequence (Q9HBA0 whole entry): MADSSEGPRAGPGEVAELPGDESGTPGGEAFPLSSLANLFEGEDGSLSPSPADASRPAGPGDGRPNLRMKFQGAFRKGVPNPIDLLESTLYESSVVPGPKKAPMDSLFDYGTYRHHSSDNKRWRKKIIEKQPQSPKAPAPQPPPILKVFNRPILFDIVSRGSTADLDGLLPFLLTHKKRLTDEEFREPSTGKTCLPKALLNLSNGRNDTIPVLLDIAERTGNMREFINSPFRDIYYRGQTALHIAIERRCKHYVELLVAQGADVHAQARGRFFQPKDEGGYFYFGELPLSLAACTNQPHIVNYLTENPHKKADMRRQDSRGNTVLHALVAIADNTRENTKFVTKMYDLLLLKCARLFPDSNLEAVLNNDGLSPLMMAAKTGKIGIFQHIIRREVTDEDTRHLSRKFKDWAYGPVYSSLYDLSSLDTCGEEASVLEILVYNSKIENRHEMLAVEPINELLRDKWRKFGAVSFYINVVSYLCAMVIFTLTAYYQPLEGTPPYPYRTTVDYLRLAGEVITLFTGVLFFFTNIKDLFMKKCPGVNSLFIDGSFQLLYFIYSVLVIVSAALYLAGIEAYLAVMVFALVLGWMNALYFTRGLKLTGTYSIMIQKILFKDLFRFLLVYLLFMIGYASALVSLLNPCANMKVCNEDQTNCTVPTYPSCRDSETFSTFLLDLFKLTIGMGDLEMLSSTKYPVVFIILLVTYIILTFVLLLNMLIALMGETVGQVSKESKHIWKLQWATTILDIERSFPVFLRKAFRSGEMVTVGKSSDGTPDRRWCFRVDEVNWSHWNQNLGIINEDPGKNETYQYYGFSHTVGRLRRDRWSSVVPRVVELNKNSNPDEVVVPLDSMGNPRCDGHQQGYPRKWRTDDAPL
# Excerpt: Other techniques used to measure TRPV4 channel receptor activation in chondrocytes include, but are not limited to: FLIPR assay, measuring a compound's capability to reduce the amount of ADAMTSs produced and/or released in response to a catabolic stimulus by a cell comprising a TRPV4 channel receptor; measuring a compound's capability to reduce the amount of MMPs produced and/or released in response to a catabolic stimulus by a cell comprising a TRPV4 channel receptor; measuring a compound's capability to effect the amount of nitric oxide (NO) produced in response to a catabolic stimulus by a cell comprising a TRPV4 channel receptor; and measuring a compound's capability to attenuate the inhibition of matrix synthesis in response to a catabolic stimulus by a cell comprising a TRPV4 channel receptor .
# All exemplary compounds of the present invention were assessed using at least one of the biological assays presented above. Compounds presented in the Examples had pEC50 values between about 4.5 to about 7.0 as measured by Flex Station in using bovine articular cartilage and EC50 values of about 0.1 μM to about 30 μM as measured by FLIPR assay using TRPV4 expressing HEK cells.
EC50 (TRPV4 channel receptors) [µM],EC50 (TRPV4 channel receptor) [µM],Structure (SMILES)
0.14 to 1,0.1 to 0.794,"CC(C)C[C@H](NC(=O)c1cc2ccccc2s1)C(=O)NCCCN(C)S(=O)(=O)c1ccc(F)cc1Cl [Example 6, N-{(1S)-1-[({3-[[(2-chloro-4-fluorophenyl)sulfonyl](methyl)amino]propyl}amino)carbonyl]-3-methylbutyl}-1-benzothiophene-2-carboxamide]"
1.01 to 10,,"CC(C)C[C@H](NC(=O)c1cc2ccccc2s1)C(=O)NCCCN(C)S(=O)(=O)c1sccc1C#N [Example 13, N-{(1S)-1-[({3-[[(3-cyano-2-thienyl)sulfonyl](methyl)amino]propyl}amino)carbonyl]-3-methylbutyl}-1-benzothiophene-2-carboxamide]"
,1 to 7.94,"CC(C)C[C@H](NC(=O)c1cc2ccccc2s1)C(=O)NCCCN(C)S(=O)(=O)c1c(Cl)cc(Cl)cc1Cl [Example 17, N-((1S)-3-methyl-1-{[(3-{methyl[(2,4,6-trichlorophenyl)sulfonyl]amino}propyl)amino]carbonyl}butyl)-1-benzothiophene-2-carboxamide]"
,10 to 20,"CC(C)C[C@H](NC(=O)c1cn2nc(Cl)ccc2n1)C(=O)NCCCN(C)S(=O)(=O)c1ccccc1C#N [Example 71, 6-chloro-N-{(1S)-1-[({3-[[(2-cyanophenyl)sulfonyl](methyl)amino]propyl}amino)carbonyl]-3-methylbutyl}imidazo[1,2-b]pyridazine-2-carboxamide]"
10 to 30,,"Cc1c(C(=O)N[C@@H](CC(C)C)C(=O)NCCCN(C)S(=O)(=O)c2ccccc2C#N)oc2cccnc12 [Example 73, N-{(1S)-1-[({3-[[(2-cyanophenyl)sulfonyl](methyl)amino]propyl}amino)carbonyl]-3-methylbutyl}-3-methylfuro[3,2-b]pyridine-2-carboxamide]"
